{"source": "BindingDB's records for patent US20240174690", "about": "(Boehringer Ingelheim International, 2024)", "biological_target": "GTPase KRas [G12C,C51S,C80L,C118S] (Homo sapiens, UniProt P01116, C118S/C51S/C80L/G12C)", "sequence (P01116 whole entry G12C/C51S/C80L/C118S, looked up)": "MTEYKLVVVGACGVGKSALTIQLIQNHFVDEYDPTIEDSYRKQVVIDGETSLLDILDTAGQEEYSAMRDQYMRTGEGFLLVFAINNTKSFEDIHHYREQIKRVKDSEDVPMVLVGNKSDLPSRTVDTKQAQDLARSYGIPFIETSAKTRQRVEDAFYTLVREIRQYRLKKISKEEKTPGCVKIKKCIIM", "assay": "AlphaScreen Binding Assay", "from_the_text": "[…]", "note": "pIC50: −log10 of the molar value.", "data": [{"smiles": "C[C@H](Oc1cc(-n2nccc2-c2ccncc2)nc(-c2noc3c2CCC[C@@]32CCCc3sc(N)c(C#N)c32)n1)[C@@H]1CCCN1C", "note": "[US20240174690, Example II-131]", "values": [{"measurement": "pIC50", "value": 8.40}]}]}
